Experimental data: US6469137B1, “Myelopeptides and their therapeutic use” (Primamedic, Ltd, priority 1997, dated 2002)
Where a SMILES comes first, the peptide text is derived from it.

Key:
[1] = test system: MT4 cells; type: cell-based, human
Protocol: The HIV-infected MT4 cells were incubated in RPMI-1640 culture medium supplemented with 10% FBS and 2 mM L-glutamine. The MT4 cells (0.5 million cells per 1 ml of culture medium) were placed in wells of a 24-well plastic culture plates and kept for 7 days of 37° C. in an atmosphere of 4.5% CO2. Each of the MPs examined was added into respective wells of the culture plates, to final concentrations of 0.1, 0.5, 1, 5, 10, 50 and 100 μg per 1 ml of culture were used. Azidothymidine (Sigma Chemical Co.) at its final concentration of 0.1 μg/ml, was used as a positive anti-viral control during each of the experiments.
Azidothymidine (0.1 μg/ml) caused 100% inhibition of HIV replication in the infected MT-4 cells.

[2] = test system: serum interferon; assay: Serum interferon increase in mice (titration on EMV-infected L929 cells); type: in vivo; conditions: dose and time not given
[3] = test system: encephalomyocarditis virus (EMV); assay: Anti-viral activity in vitro, L929 cells infected by EMV; type: cell-based, mouse; conditions: pre-incubation 24 or 48 h, then 100 TCID50 of EMV
Protocol: The L929 mouse fibroblastoid cell line was maintained in vitro as described above. MP-3, MP-4, MP-5 and MP-6 were added into triplicate cultures using the following final concentrations: 500, 250, 125, 63, 31, 16, 8, 4, 2, 1, 0.5, 0.25 μg per 1 ml of culture. Ridostin was used as a control interferon-inducer.
24 or 48 h post-injection, the L929 cell cultures were infected by 100 TCID50 of EMV. During the next 24 h the viral infection caused dramatic damages in L929 cells. […] MP-5, by contrast, when added in a final concentration of 16 μg/ml or more, completely abrogated destructive influence of the virus on L929 cells. So did MP-6, when added at a concentration of 4 μg/ml or more. […] MP-4 also defended the L929 cells from the virus-induced damage, after 48 h exposure of the cells in the presence of 32 μg/ml (or higher concentration) of the preparation before their challenge by the virus.

Molecule	Damage of MT4 cells (cell viability) [1]	Serum interferon titer, level characteristic of positive control [2]	Concentration that completely abrogated destructive influence of the virus on L929 cells [3]
CC(C)C[C@H](N)C(=O)N[C@H](C(=O)N[C@@H](CS)C(=O)N[C@@H](Cc1ccc(O)cc1)C(=O)N1CCC[C@H]1C(=O)N[C@@H](CCC(N)=O)C(=O)O)C(C)C [MP-3, LVCYPQ] (H-LVCYPQ-OH; N-terminus and C-terminus assumed)	no visible damage		
CC[C@H](C)[C@H](NC(=O)[C@H](CCCNC(=N)N)NC(=O)[C@@H]1CCCN1C(=O)[C@H](CCCNC(=N)N)NC(=O)[C@@H](N)Cc1ccccc1)C(=O)N[C@@H](CCSC)C(=O)N[C@H](C(=O)N1CCC[C@H]1C(=O)O)[C@@H](C)O [MP-4, FRPRIMTP] (H-FRPRIMTP-OH; N-terminus and C-terminus assumed)	no visible damage		
CC(C)[C@H](N)C(=O)N[C@H](C(=O)N[C@@H](Cc1ccc(O)cc1)C(=O)N1CCC[C@H]1C(=O)N[C@@H](CC(=O)O)C(=O)O)C(C)C [MP-5, VVYPD] (H-VVYPD-OH; N-terminus and C-terminus assumed)	no visible damage		
CC(C)[C@H](N)C(=O)N[C@@H](CC(=O)O)C(=O)N1CCC[C@H]1C(=O)N1CCC[C@H]1C(=O)O [MP-6, VDPP] (H-VDPP-OH; N-terminus and C-terminus assumed)	no visible damage		
Ridostin		320 units/ml	≥ 0.5 µg/mL
